pEC50: −log10 of the molar value. Square brackets hold non-standard residues; d marks the D form. Side chains are listed from the residue outwards. Peptide text beside a SMILES is read from it. * marks the point of attachment. C18 diacid = O=C(O)CCCCCCCCCCCCCCCCC(=O)*; NMeY = CN[C@@H](Cc1ccc(O)cc1)C(=O)O; Palmitoyl = CCCCCCCCCCCCCCCC(=O)*; αMeF = C[C@](N)(Cc1ccccc1)C(=O)O; Iva = CC[C@](C)(N)C(=O)O; Aib = CC(C)(N)C(=O)O
Key:
[1] = biological target: T1, human GIPR (Homo sapiens, UniProt P48546); assay: Reporter assay of human GIPR gene (agonist activity, intracellular cAMP as index); format: cell-based; settings: Cre-luc reporter, hGIPR/CHO-K1 cells, 4 hours
T1 construct: expressed in transfected cells; host or cells: CHO-K1 Cre-luc reporter cells (hGIPR/CHO-K1, also called hGIPR/CRE-LUC/CHO-K1)
T1 sequence (P48546 22-466): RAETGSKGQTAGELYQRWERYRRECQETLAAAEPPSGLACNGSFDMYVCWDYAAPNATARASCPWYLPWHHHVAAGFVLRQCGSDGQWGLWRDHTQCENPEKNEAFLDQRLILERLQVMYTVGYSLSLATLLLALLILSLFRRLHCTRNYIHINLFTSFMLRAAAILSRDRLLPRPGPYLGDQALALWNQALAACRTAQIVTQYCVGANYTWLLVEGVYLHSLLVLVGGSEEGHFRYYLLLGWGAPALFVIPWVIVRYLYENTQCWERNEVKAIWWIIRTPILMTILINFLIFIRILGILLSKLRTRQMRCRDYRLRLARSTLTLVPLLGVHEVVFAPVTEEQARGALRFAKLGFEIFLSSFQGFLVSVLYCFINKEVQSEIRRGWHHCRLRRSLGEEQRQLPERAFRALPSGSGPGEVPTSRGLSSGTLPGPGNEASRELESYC
Text: Evaluation of Agonist Activity Against Human NPY2R, Human GIPR, and Human GLP-1R Using Change in Intracellular cAMP Concentration as Index
The human GIPR gene having a sequence identical to the sequence of GenBank Accession No. U39231 was cloned into pMSRα-neo vector to prepare hGIPR/pMSRα-neo. This vector was introduced to the Cre-luc reporter cells obtained in (1) to obtain transformants. Next, a cell line induced to express luciferase, i.e., hGIPR/CHO-K1 cells, were selected from the obtained transformants by the addition of GIP.
The hGIPR/CRE-LUC/CHO-K1 cells or the hGLP-1R/Crel cells were inoculated at a cell density of 25 μL/well (5,000 cells/well) to a 384-well white plate (Corning, 3570), and cultured overnight in Ham F12 medium containing 10% fetal bovine serum, 100 U/mL penicillin and 100 μg/mL streptomycin in a CO2 incubator of 37° C. On the next day, a medium containing a test compound was added at a concentration of 5 μL/well to the cells, and the resultant cells were incubated for 4 hours in a CO2 incubator of 37° C. to give the final concentration of 1 μM. SteadyGlo (Promega) was added thereto at a concentration of 30 μL/well, and the mixture was shaken with light shielded. After 30 minutes, the luciferase activity was measured using a plate reader Envision (PerkinElmer). For the GIPR agonist activity, the luciferase activity in the presence of 10 μM GIP was defined as 100%, and the luciferase activity from the addition of DMSO instead of the test compound was defined as 0%. The GIPR agonist activity was calculated with a rise in intracellular cAMP concentration as an index.

[2] = system: male C57BL/6J mouse; assay: Evaluation of feeding suppressive action in mice; format: in vivo; settings: 30 nmol/kg s.c. once a day for 3 days; 3-days cumulative food consumption vs solvent control
Procedure: The feeding suppressive activity of a test compound was examined by the method described below.
The test compound was dissolved at a concentration of 30 or 100 nmol/2 mL in a solvent (10% DMSO-containing physiological saline). The test compound solution was subcutaneously administered at a dose of 2 mL/kg to the back of each male C57BL/6J mouse at 8-9 weeks of age (20-26° C., allowed to take food and water ad libitum; raised in the 12-hour bright-12-hour dark cycle). The administration was performed once a day for 3 days. After the administration, the mouse was individually raised in a rearing cage, and given previously weighed food; food consumption for 3 days after the start of administration was measured. The food consumption was calculated by subtracting the amount of remaining food from the weight of the food given on the day of the start of administration. When the food consumption of a control group receiving administration of the solvent alone was regarded as a suppression rate of 0%, the feeding suppressive activity of each test compound was evaluated on the basis of 3-days cumulative food consumption after the start of administration. The food intake suppression rate (%) of the test compound was defined as (Food consumption of the control group−Food consumption of the test compound-administered group)/Food consumption of the control group×100.

Structure (SMILES) | pEC50 [1] | Rate of feeding suppression (%) [2] [%]
CC[C@H](C)[C@H](NC(=O)[C@H](C)NC(=O)[C@H](CCCCNC(=O)CNC(=O)CNC(=O)CNC(=O)CNC(=O)CCCCCCCCCCCCCCCCC(=O)O)NC(=O)[C@H](CC(=O)O)NC(=O)[C@H](CO)NC(=O)[C@@H](NC(=O)[C@](C)(Cc1ccccc1)NC(=O)[C@@H](NC(=O)CNC(=O)[C@H](CCC(=O)O)NC(=O)C(C)(C)NC(=O)[C@H](Cc1ccc(O)cc1)NC)[C@@H](C)O)[C@@H](C)O)C(=O)NC(C)(C)C(=O)N[C@@H](CC(C)C)C(=O)N[C@@H](CC(=O)O)C(=O)N[C@@H](CCCCN)C(=O)N[C@@H](CCC(N)=O)C(=O)N[C@@H](CCCNC(=N)N)C(=O)N[C@@H](CCC(N)=O)C(=O)N[C@@](C)(CC)C(=O)N[C@@H](CCC(=O)O)C(=O)N[C@@H](Cc1ccccc1)C(=O)N[C@H](C(=O)N[C@@H](CCCNC(=N)N)C(=O)N[C@@H](Cc1c[nH]cn1)C(=O)N[C@@H](CC(C)C)C(=O)N[C@@H](CC(C)C)C(=O)N[C@@H](CC(N)=O)C(=O)N[C@@H](CCCCN)C(=O)NC(C)(C)C(=O)N[C@H](C(=O)N[C@@H](CCCNC(=N)N)C(=O)N[C@@H](CCC(N)=O)C(=O)N[C@@H](CCCNC(=N)N)C(=O)N[C@@H](Cc1ccc(O)cc1)C(N)=O)[C@@H](C)O)C(C)C [Example 14] (H-[NMeY][Aib]EGT[αMeF]TSDK([Gly-Gly-Gly-Gly-C18 diacid])AI[Aib]LDKQRQ[Iva]EFVRHLLNK[Aib]TRQRY-NH2) | 9.77 | –
CCCCCCCCCCCCCCCC(=O)NCC(=O)NCC(=O)NCC(=O)NCC(=O)NCCCC[C@H](NC(=O)[C@H](CC(=O)O)NC(=O)[C@H](CO)NC(=O)[C@@H](NC(=O)[C@](C)(Cc1ccccc1)NC(=O)[C@@H](NC(=O)CNC(=O)[C@H](CCC(=O)O)NC(=O)C(C)(C)NC(=O)[C@@H](N)Cc1ccc(O)cc1)[C@@H](C)O)[C@@H](C)O)C(=O)NC(C)(C)C(=O)N[C@H](C(=O)NC(C)(C)C(=O)N[C@@H](CC(C)C)C(=O)N[C@@H](CC(=O)O)C(=O)N[C@@H](CCCCN)C(=O)N[C@@H](CCC(N)=O)C(=O)N[C@@H](C)C(=O)N[C@@H](CCC(N)=O)C(=O)N[C@@](C)(CC)C(=O)N[C@@H](CCC(=O)O)C(=O)N[C@@H](Cc1ccccc1)C(=O)N[C@H](C(=O)N[C@@H](CCCNC(=N)N)C(=O)N[C@@H](Cc1c[nH]cn1)C(=O)N[C@@H](CC(C)C)C(=O)N[C@@H](CC(C)C)C(=O)N[C@@H](CC(N)=O)C(=O)N[C@@H](CCCCN)C(=O)NC(C)(C)C(=O)N[C@H](C(=O)N[C@@H](CCCNC(=N)N)C(=O)N[C@@H](CCC(N)=O)C(=O)N[C@@H](CCCNC(=N)N)C(=O)N[C@@H](Cc1ccc(O)cc1)C(N)=O)[C@@H](C)O)C(C)C)[C@@H](C)CC [Example 27] (H-Y[Aib]EGT[αMeF]TSDK([Gly-Gly-Gly-Gly-Palmitoyl])[Aib]I[Aib]LDKQAQ[Iva]EFVRHLLNK[Aib]TRQRY-NH2) | 10.39 | −41.6
CC[C@H](C)[C@H](NC(=O)C(C)(C)NC(=O)[C@H](CCCCNC(=O)CNC(=O)CNC(=O)CNC(=O)CNC(=O)CCCCCCCCCCCCCCCCC(=O)O)NC(=O)[C@H](CC(=O)O)NC(=O)[C@H](CO)NC(=O)[C@@H](NC(=O)[C@](C)(Cc1ccccc1)NC(=O)[C@@H](NC(=O)CNC(=O)[C@H](CCC(=O)O)NC(=O)C(C)(C)NC(=O)[C@H](Cc1ccc(O)cc1)NC)[C@@H](C)O)[C@@H](C)O)C(=O)NC(C)(C)C(=O)N[C@@H](CC(C)C)C(=O)N[C@@H](CC(=O)O)C(=O)N[C@@H](CCCCN)C(=O)N[C@@H](CCC(N)=O)C(=O)N[C@@H](C)C(=O)N[C@@H](CCC(N)=O)C(=O)N[C@@](C)(CC)C(=O)N[C@@H](CCC(=O)O)C(=O)N[C@@H](Cc1ccccc1)C(=O)N[C@H](C(=O)N[C@@H](CCCNC(=N)N)C(=O)N[C@@H](Cc1c[nH]cn1)C(=O)N[C@@H](CC(C)C)C(=O)N[C@@H](CC(C)C)C(=O)N[C@@H](CC(N)=O)C(=O)N[C@@H](CCCCN)C(=O)NC(C)(C)C(=O)N[C@H](C(=O)N[C@@H](CCCNC(=N)N)C(=O)N[C@@H](CCC(N)=O)C(=O)N[C@@H](CCCNC(=N)N)C(=O)N[C@@H](Cc1ccc(O)cc1)C(N)=O)[C@@H](C)O)C(C)C [Example 30] (H-[NMeY][Aib]EGT[αMeF]TSDK([Gly-Gly-Gly-Gly-C18 diacid])[Aib]I[Aib]LDKQAQ[Iva]EFVRHLLNK[Aib]TRQRY-NH2) | 10.13 | –
CCCCCCCCCCCCCCCC(=O)NCC(=O)NCC(=O)NCC(=O)NCC(=O)NCCCC[C@H](NC(=O)[C@H](CC(=O)O)NC(=O)[C@H](CO)NC(=O)[C@@H](NC(=O)[C@](C)(Cc1ccccc1)NC(=O)[C@@H](NC(=O)CNC(=O)[C@H](CCC(=O)O)NC(=O)C(C)(C)NC(=O)[C@@H](N)Cc1ccc(O)cc1)[C@@H](C)O)[C@@H](C)O)C(=O)N[C@@H](CO)C(=O)N[C@H](C(=O)NC(C)(C)C(=O)N[C@@H](CC(C)C)C(=O)N[C@@H](CCC(=O)O)C(=O)N[C@@H](CCCCN)C(=O)N[C@@H](CCC(N)=O)C(=O)N[C@@H](CCCNC(=N)N)C(=O)N[C@@H](CCC(N)=O)C(=O)N[C@@](C)(CC)C(=O)N[C@@H](CCC(=O)O)C(=O)N[C@@H](Cc1ccccc1)C(=O)N[C@H](C(=O)N[C@@H](CCCNC(=N)N)C(=O)N[C@@H](Cc1c[nH]cn1)C(=O)N[C@@H](CC(C)C)C(=O)N[C@@H](CC(C)C)C(=O)N[C@@H](CC(N)=O)C(=O)N[C@@H](CCCCN)C(=O)NC(C)(C)C(=O)N[C@H](C(=O)N[C@@H](CCCNC(=N)N)C(=O)N[C@@H](CCC(N)=O)C(=O)N[C@@H](CCCNC(=N)N)C(=O)N[C@@H](Cc1ccc(O)cc1)C(N)=O)[C@@H](C)O)C(C)C)[C@@H](C)CC [Example 39] (H-Y[Aib]EGT[αMeF]TSDK([Gly-Gly-Gly-Gly-Palmitoyl])SI[Aib]LEKQRQ[Iva]EFVRHLLNK[Aib]TRQRY-NH2) | 10.39 | −49.6
